Laboratory results from patent US20110195425A1, “SYSTEMS AND METHODS FOR DIAGNOSING PARASITE INFECTIONS” (priority 2010, published 2011).
“And” between values parts separate entries of the source, which are not always exact repeats. Identical values can stand only once.

Assays:
peroxidase = test: Peroxidase assay in saliva (Amplex Red); type: biochemical; conditions: single compounds at 500 ppm; pooled and unpooled saliva; 30 minutes; FIGS. 26-29
Protocol: To determine the effect of various GRAS compounds as inhibitors of peroxidase activity, a standard assay using Amplex® Red (Life Technologies), which releases a fluorescent oxidation product.
The test compounds, such as GRAS materials or cocktails of same, were prepared at a concentration of 500 ppm in distilled water. For the assay, 50 μl samples of test compounds were mixed with 20-30 μl of saliva (either “pooled” or “unpooled”) prior to the addition of Amplex® Red. Following the mixture of the test compounds with saliva, […] Amplex® Red/HRP working solution (See Protocol for Invitrogen Assay #A22188, which is incorporated herein in its entirety), which has a concentration of 100 μM of Amplex® Red, is added to the test compound/saliva mixture. […] Reactions were allowed to run for 30 minutes during these assays.

α-amylase = molecular target: T1, α-amylase (Homo sapiens, UniProt P0DUB6); test: α-Amylase inhibition saliva screening (2-chloro-p-nitrophenol-maltotriose substrate, absorbance 405 nm); type: biochemical; conditions: for Ave (α-amylase assay reading): average of four readings; for α-amylase assay single reading (absorbance at 405 nm): saliva, test compound prepared at 5,000 ppm, 37° C., replicate readings
T1 sequence (P0DUB6 16-511): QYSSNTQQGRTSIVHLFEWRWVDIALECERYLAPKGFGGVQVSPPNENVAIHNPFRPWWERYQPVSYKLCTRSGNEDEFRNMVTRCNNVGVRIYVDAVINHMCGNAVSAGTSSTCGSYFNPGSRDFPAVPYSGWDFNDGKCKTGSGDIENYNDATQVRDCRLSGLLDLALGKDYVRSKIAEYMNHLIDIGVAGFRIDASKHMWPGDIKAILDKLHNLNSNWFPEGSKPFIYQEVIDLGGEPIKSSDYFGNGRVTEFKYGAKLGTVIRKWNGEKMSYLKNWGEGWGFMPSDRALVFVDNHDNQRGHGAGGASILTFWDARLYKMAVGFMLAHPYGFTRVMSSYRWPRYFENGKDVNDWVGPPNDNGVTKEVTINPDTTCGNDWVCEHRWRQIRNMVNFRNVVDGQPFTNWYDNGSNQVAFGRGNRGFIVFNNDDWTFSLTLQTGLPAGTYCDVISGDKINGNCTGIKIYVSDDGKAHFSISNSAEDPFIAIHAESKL
From the text: Enzymatic activity of α-amylase on the substrate yields 2-chloro-p-nitrophenol, which can be measured spectrophotometrically at 405 nm. The amount of α-amylase activity present in the experimental sample is directly proportional to the increase in absorbance at 405 nm.

| Compound | peroxidase inhibition (peroxidase) | Ave (α-amylase assay reading) (α-amylase; 0 min) | α-amylase assay single reading (absorbance at 405 nm) (α-amylase; 0 min) | Ave (α-amylase assay reading) (α-amylase; 5 min) | α-amylase assay single reading (absorbance at 405 nm) (α-amylase; 5 min) | Ave (α-amylase assay reading) (α-amylase; 15 min) | α-amylase assay single reading (absorbance at 405 nm) (α-amylase; 15 min) | α-amylase assay single reading (absorbance at 405 nm) (α-amylase; 0 min, sulfate hydrate) | α-amylase assay single reading (absorbance at 405 nm) (α-amylase; 5 min, sulfate hydrate) | α-amylase assay single reading (absorbance at 405 nm) (α-amylase; 15 min, sulfate hydrate) |
| --- | --- | --- | --- | --- | --- | --- | --- | --- | --- | --- |
| Cn1c(=O)c2c(ncn2C)n(C)c1=O [CDI #33, Caffeine] | significant peroxidase inhibition capabilities |  |  |  |  |  |  |  |  |  |
| Aluminum potassium sulfate dodecahydrate [CDI-42] | significant peroxidase inhibition capabilities | 0.92 | 0.80 and 1.13 and 0.90 and 0.84 | 1.85 | 1.65 and 2.15 and 1.80 and 1.81 | 2.29 | 2.37 and 2.38 and 2.25 and 2.17 |  |  |  |
| Aluminum sulfate hydrate [CDI-34] |  | 0.40 |  | 0.50 |  | 0.56 |  | 0.40 (2×) and 0.36 and 0.45 | 0.49 and 0.50 (2×) and 0.52 | 0.53 and 0.61 and 0.54 and 0.56 |
| COc1ccc(O)c(C(C)(C)C)c1 [CDI-039, 3-tert--butyl-hydroxyanisole] | significant peroxidase inhibition capabilities |  |  |  |  |  |  |  |  |  |
